Assay results taken from publication PMC12909347, “Disconnect between in vitro and in vivo efficacy of the MPS1 inhibitor NTRC 0066-0 against glioblastoma” (Cellular Oncology, 2026).

Tested on: GBM cells
Test: Incucyte caspase-3/7 apoptosis assay
Format: cell-based, human
Details: three serum-cultured GBM cell lines, increasing concentrations
Method: For the apoptosis assay, cells were plated in a 96-wells plate at low cell densities (500–1000 cells/well) and allowed to adhere overnight under standard culture conditions (37 °C, 5% CO₂). After 24 h, cells were exposed to different concentrations of NTRC0066-0. Apoptosis was measured using the Incucyte® Caspase-3/7 Dye for Apoptosis (Sartorius AG, Göttingen, Germany), which was added at a final concentration of 2.5 µM. As a positive control for the induction of Caspase 3/7-mediated apoptosis, cells were treated with a combination of S63845 and navitoclax (final concentrations 3 µM and 1.5 µM, respectively). Apoptotic cell death was assessed in real time with the Incucyte® S3 system (Sartorius AG). The Incucyte® was configured to capture phase-contrast images using a 10x objective lens. Data were collected and analyzed using the Incucyte® S3 software. Fluorescence signal confluence was quantified and normalized to the total phase-contrast confluence in each well to take variations in cell density into account. Curves were plotted using GraphPad Prism v10.3 (GraphPad Software).

SMILES: CCc1cccc(CC)c1NC(=O)c1ccn2c1CCc1cnc(Nc3ccc(N4CCN(C)CC4)cc3OC)nc1-2 [NTRC 0066-0]
- Induction of apoptosis (caspase 3/7 activation): did not induce apoptosis
